One data set has as its target Bovine Factor Xa (Bos taurus, UniProt P00743). As to the kind of experiment: Anti-factor Xa assay (hydrolysis of chromogenic substrate S-2222). In kind it is biochemical. The settings on record: substrate S-2222, TNP buffer, 37° C. The text has this:
Activated Factor X (Xa) is a factor in the coagulation cascade. […] This assay for anti-Xa activity in a buffer system was used to assess the IC50-value of the test compound.
In general the followed procedure and test conditions were analogous to those of the anti-thrombin assay as described above. Differences are indicated below.

The next data set has as its target Human thrombin (Homo sapiens, UniProt P00734). Put plainly: Anti-thrombin assay (hydrolysis of chromogenic substrate S-2238). In kind it is biochemical. The settings on record: substrate S-2238, TNP buffer pH 7.4, 37° C., read-out: Antithrombin activity: IC50. An excerpt: Thrombin (Factor IIa) is a factor in the coagulation cascade.
This assay for anti-thrombin activity in a buffer system was used to assess the IC50-value of a test compound.
Preparation of test and reference compound solutions
Each concentration is stepwise diluted with the vehicle to give concentrations of 10^−3, 10^−4 and 10^−5 mol·l^−1. The dilutions, including the stock solution, are used in the assay (final concentrations in the reaction mixture: 3·10^−3; 10^−3; 3·10^−4; 10^−4; 3·10^−5; 10^−5; 3·10^−6 and 10^−6 mol·l^−1, respectively).
At room temperature 0.075 ml and 0.025 ml test compound or reference compound solutions or vehicle are alternately pipetted into the wells of a microtiter plate and these solutions are diluted with 0.115 ml and 0.0165 ml TNP buffer, respectively. […] The plate is incubated (with shaking for 30 s) at 37° C.
All data are collected in an IBM personal computer using LOTUS-MEASURE. For each compound concentration (expressed in mol·l^−1 reaction mixture) and for the blank the absorbance is plotted versus the reaction time in min.
Evaluation of responses: For each final concentration the maximum absorbance was calculated from the assay plot.

In data set [1] the test system is Caco-2 cells.
Method: (§1) In this in vitro model the transepithelial transport properties of a compound are determined in monolayers of a human intestinal cell-line (Caco-2) in terms of a permeability coefficient (apparent permeability).
(§2) Caco-2 cells were obtained from the American Type Culture Collection and were used in passage nrs 25 to 35. Cells were maintained at 37° C. in 75 cm^2 culture flasks (Nunc) in Dulbecco's Modified Eagle's Medium (DNEM) supplemented with 1% of non-essential amino acid solution (100×), 10% of heat-inactivated fetal bovine serum, penicillin (100 U/ml) and streptomycin (100 μg/ml) in an atmosphere of 95% of air and 5% of CO2. The pH of the medium was 7.4. For experiments cells were grown on Transwell-COL™ collagen treated cell culture filter inserts (Costar, Cambridge, Mass., USA) with a surface area of 0.33 cm^2 The seeding density was 6.3×10^5 cells/cm^2. Culture medium was added on each side of the filter. The growth of the cells and degree of confluency was checked every 2-3 days microscopically. Confluent monolayers were used on day 23-24 after seeding, at which time the transepithelial electrical resistance of the monolayers was at a stable value of approximately 260 Ω·cm^2. Permeability experiments were performed with compound concentrations of 0.1 mM or 1 mM in the apical compartment in Hanks' Balanced Salt Solution with or without 0.5% (w/v) of bovine serum albumin. At 1, 2 and 3 hours after addition of compound to the cells the filters were placed into fresh acceptor compartments. In this way three one-hour samples were obtained. Compound concentration was determined in samples from acceptor compartments and donor compartment by HPLC or by measuring anti-thrombin activity. Permeability experiments of each compound were performed with 4 different filters. Results shown in the Table are means of the permeability between 2 and 3 hours after the start of the experiment of at least 2 filters.
The test system of data set [2] is Caco-2 cells. Put plainly: Caco-2 permeability. To be noted: 0.1 mM or 1 mM apical; mean of permeability between 2 and 3 hours, at least 2 filters.
Method: as §1, §2
The next data set is described as follows: in vitro. The settings on record: human, Caco-2.
The nature of another data set: Caco-2 permeability. To be noted: human, Caco-2.

Counter-ions that a name gives are not always drawn. Like-named read-outs stand apart in the source and are kept apart here.

Sequence of Bovine Factor Xa (P00743 41-180 limits assumed): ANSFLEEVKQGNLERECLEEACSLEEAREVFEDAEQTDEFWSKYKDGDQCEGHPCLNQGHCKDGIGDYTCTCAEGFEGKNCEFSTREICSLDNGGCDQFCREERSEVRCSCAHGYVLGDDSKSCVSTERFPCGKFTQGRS
Sequence of Bovine Factor Xa (P00743 234-492 limits assumed): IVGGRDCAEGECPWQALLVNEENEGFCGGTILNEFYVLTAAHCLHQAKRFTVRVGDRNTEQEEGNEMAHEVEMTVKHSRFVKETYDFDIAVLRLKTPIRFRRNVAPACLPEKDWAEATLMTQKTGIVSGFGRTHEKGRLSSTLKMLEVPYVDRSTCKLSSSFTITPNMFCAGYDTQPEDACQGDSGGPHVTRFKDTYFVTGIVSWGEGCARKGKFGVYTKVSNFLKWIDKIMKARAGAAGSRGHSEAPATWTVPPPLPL
Method for in vitro: as §1, §2

Usually IC50 stands for the midpoint of a concentration-inhibition curve. In the case of `COC(=O)C(Cc1cc2c(N)nccc2s1)NC(=O)CNS(=O)(=O)c1ccc2ccccc2c1` (stereo not shown) [Example 3, 3-(4-aminothieno[3,2c]pyridin-2-yl)-2-[[2-[(2-naphthalenylsulfonyl)amino]acetyl]amino]-propionic acid methyl ester hydrochloride], half-maximal inhibition against Bovine Factor Xa (IC50) required 29 µM.
`CC1CCN(C(=O)C(Cc2cc3c(N)nccc3s2)NS(=O)(=O)CC23CCC(CC2=O)C3(C)C)CC1` [Example 30, 1-[3-(4-aminothieno[3,2c]pyridin-2-yl)-2-[[[1-(1R,4S)-(7,7-dimethyl-2-oxobicyclo[2,2,1]hept-1-yl)methyl]sulfonyl]amino]-1-oxopropyl]-4-methylpiperidine hydrochloride]: the half-maximal inhibitory concentration (IC50) at Human thrombin came to 35 µM.
`COCCN(C)C(=O)C(Cc1cc2c(N)nccc2s1)NS(=O)(=O)c1ccc2ccc(OC)cc2c1` (stereo not shown) [Example 26, 3-(4-aminothieno[3,2c]pyridin-2-yl)-N-(2-methoxyethyl)-2-[[(7-methoxy-2-naphthalenyl)-sulfonyl]amino]-N-methyl-propanamide hydrochloride] yielded an IC50 at Bovine Factor Xa of 14 µM.
On to “1-[3-[3-(aminoiminomethyl)phenyl]-2-[(2-naphthalenyl-sulfonyl)amino]-1-oxopropyl]-4-(methylsulfonyl)piperazine [Pefa 1286]”, for which, in the data set on Caco-2 cells [1], the “Caco-2 Papp (apparent permeability)” value is 1.1 nm/s.
In the case of `COc1ccc2ccc(S(=O)(=O)NC(Cc3cc4c(N)nccc4s3)C(=O)N3CCC(C)CC3)cc2c1` (stereo not shown) [Example 18, 1-[1-(4-aminothieno[3,2c]pyridin-2-yl)-2-[[(7-methoxy-2-naphthalenyl)sulfonyl]amino]-1-oxopropyl]-4-methylpiperidine hydrochloride], on Human thrombin, the half-inhibitory concentration (IC50) is 0.53 µM.
On to `Cc1c(C)c(S(=O)(=O)NNC(=O)NC(Cc2ccc3c(N)nccc3c2)C(=O)N2CCCCC2)c(C)c2c1OC(C)(C)CC2` (stereo not shown) [Example 10, 3,4-dihydro-2,2,5,7,8-pentamethyl-2H-1-benzopyran-6-ylsulfonic acid 2-[[[1-[(1-amino-6-isoquinolinyl)methyl]-2-oxo-2-(1-pineridinyl)ethyl]amino]carbonyl]hydrazide hydrochloride], for which the IC50 at Human thrombin amounted to 1.1 µM.
Regarding `Cl.Nc1nccc2sc(CC(NC(=O)CNS(=O)(=O)c3ccc4ccccc4c3)C(=O)N3CCCCC3)cc12` (stereo not shown) [Example 4, N-[1-[(4-Aminothieno[3,2c]pyridin-2-yl)methyl]-2-oxo-2-(1-piperidinyl)ethyl]-2-[(2-naphthalenylsulfonyl)amino]acetamide hydrochloride], in the data set with Caco-2 cells [2], the “Caco-2 Papp (apparent permeability)” value was 25 nm/s.
In the case of `CC1CCN(C(=O)C(Cc2cc3c(N)nccc3s2)NS(=O)(=O)c2ccc3oc4ccccc4c3c2)CC1` (stereo not shown) [Example 32, 1-[3-(4-aminothieno[3,2c]pyridin-2-yl)-2-[[(2-dibenzofuranyl)sulfonyl]amino]-1-oxopropyl]-4-methylpiperidine hydrochloride], at Human thrombin, the IC50 is 1.44 µM.
By Papp A→B is commonly meant how fast a substance crosses the layer from the apical side. A low value points to poor permeation. With `Cc1c(C)c(S(=O)(=O)NCC(=O)NC(Cc2ccc3c(N)nccc3c2)C(=O)N2CCCCC2)c(C)c2c1OC(C)(C)CC2.Cl` (stereo not shown) [Example 5, N-[1-[(1-Amino-6-isoquinolinyl)methyl]-2-oxo-2-(1-piperidinyl)ethyl]-2-[[(3,4-dihydro-2,2,5,7,8-pentamethyl-2H-1-benzopyran-6-yl)sulfonyl]amino]acetamide hydrochloride], at Human thrombin, the IC50 turned out to be 28 µM. Further, in “in vitro”, the Papp A→B turned out to be 3.7 ×10⁻⁶ cm/s.
In “Caco-2 permeability”, `Cl.Nc1nccc2cc(CC(NC(=O)CNS(=O)(=O)c3ccc4ccccc4c3)C(=O)N3CCCCC3)ccc12` (stereo not shown) [Example 2, N-[1-[(1-amino-6-isoquinolinyl)methyl]-2-oxo-2-(1-piperidinyl)ethyl]-2-[(2-naphthalenyl-sulfonyl)amino]acetamide hydrochloride] displayed a Papp A→B of 1.9 ×10⁻⁶ cm/s.
With `Nc1nccc2cc(CC(NC(=O)[C@H](CO)NS(=O)(=O)c3ccc4ccccc4c3)C(=O)N3CCCCC3)ccc12` (stereo partly drawn) [Example 7, (2S)-N-[1-[(1-amino-6-isoquinolinyl)methyl]-2-oxo-2-(1-piperidinyl)ethyl]-3-hydroxy-2-[(2-naphthalenylsulfonyl)amino]propanamide hydrochloride], the IC50 on Human thrombin was 6.8 µM.
`COC(=O)C(Cc1ccc2c(N)nccc2c1)NC(=O)CNS(=O)(=O)c1ccc2ccccc2c1` (stereo not shown) [Example 1, 3-(1-amino-6-isoquinolinyl)-2-[[2-[(2-naphthalenylsulfonyl)amino]acetyl]amino]propionic acid methyl ester hydrochloride] returned an IC50 on Bovine Factor Xa of 48 µM.

The record behind these values is US6797710B2, “Heterocyclic derivatives and their use as antithrombotic agents” (Akzo Nobel N.V., priority 1997, dated 2004).
